The subject of series [1] is Staphylococcus aureus. The series can be described thus: Antibacterial activity against methicillin-susceptible Staphylococcus aureus SH1000 incubated for 72 hrs. It counts as functional. As to conditions: SH1000, 72 h.
Another series has as its system Enterococcus faecalis. Put plainly: Antibacterial activity against Enterococcus faecalis OG1RF incubated for 72 hrs. The format is functional.
In another series the test system is Escherichia coli. Put plainly: Antibacterial activity against Escherichia coli MC4100 incubated for 72 hrs. To be noted: str. K-12 substr. MC4100, 72 h. It counts as functional.
The subject of another series is Pseudomonas aeruginosa. Put plainly: Antibacterial activity against Pseudomonas aeruginosa PAO1 incubated for 72 hrs. It counts as functional. To be noted: PAO1, 72 h.
Series [2] has as its system Staphylococcus aureus. The series can be described thus: Antibacterial activity against community acquired methicillin-resistant Staphylococcus aureus USA300-0114 incubated for 72 hrs. It counts as functional. To be noted: USA300-0114, 72 h.
The subject of series [3] is Staphylococcus aureus. The series can be described thus: Antibacterial activity against hospital-acquired methicillin-resistant Staphylococcus aureus ATCC 33592 incubated for 72 hrs. The format is functional. As to conditions: ATCC 33592, 72 h.
Series [4] in a line: Stability of the compound in pure water by LCMS method. The format is physicochemical.

Some results are limits rather than exact numbers.

Turning to `CCCCCCCCCOC(=O)C[N+](C)(C)CCCN(CCC[N+](C)(C)CC(=O)OCCCCCCCCC)CCC[N+](C)(C)CC(=O)OCCCCCCCCC.[Br-].[Br-].[Br-]`, the minimum inhibitory concentration (MIC) in the series on Staphylococcus aureus [1] was 2 µM; with Enterococcus faecalis, 8 µM; in the series with Escherichia coli, 4 µM; in the series with Pseudomonas aeruginosa it was 16 µM; against Staphylococcus aureus [2], 4 µM; against Staphylococcus aureus [3] it was 4 µM. In addition, in series [4], the Stability entry was “Stable”.
Consider `CCCCCCCOC(=O)C[N+](C)(C)CCN1CC[N+](C)(CC(=O)OCCCCCCC)CC1.[Br-].[Br-]`, for which the MIC in the series with Staphylococcus aureus [1] is greater than 250 µM; in the series with Enterococcus faecalis it was greater than 250 µM; in the series on Escherichia coli, greater than 250 µM; in the series with Pseudomonas aeruginosa it was greater than 250 µM; against Staphylococcus aureus [2], 250 µM; in the series on Staphylococcus aureus [3], greater than 250 µM. Moreover, the Stability result in series [4] is on record as “Stable”.
Regarding `CCCCCCOC(=O)C[N+](C)(C)CCCN(CCC[N+](C)(C)CC(=O)OCCCCCC)CCC[N+](C)(C)CC(=O)OCCCCCC.[Br-].[Br-].[Br-]`, the MIC with Staphylococcus aureus [1] is 63 µM; against Enterococcus faecalis it was 250 µM; with Escherichia coli, 250 µM; against Pseudomonas aeruginosa, greater than 250 µM; against Staphylococcus aureus [2], 63 µM; in the series with Staphylococcus aureus [3], 250 µM. The Stability entry in series [4] is “Stable”.
With `CCCCCCOC(=O)C[N+](C)(C)Cc1ccccc1.[Br-]`, the MIC in the series with Staphylococcus aureus [1], in the series on Enterococcus faecalis, with Escherichia coli, against Pseudomonas aeruginosa, against Staphylococcus aureus [2] and in the series with Staphylococcus aureus [3] was greater than 250 µM each time. For the same compound, the Stability entry in series [4] was “Stable”.
For `CCCCCCCOC(=O)C[N+](C)(C)CCC[N+](C)(CCC[N+](C)(C)CC(=O)OCCCCCCC)CC(=O)OCCCCCCC.[Br-].[Br-].[Br-]`, the MIC was 32 µM in the series with Staphylococcus aureus [1]; 32 µM in the series with Enterococcus faecalis; 125 µM against Escherichia coli; 125 µM against Pseudomonas aeruginosa; 16 µM in the series on Staphylococcus aureus [2]; 32 µM in the series on Staphylococcus aureus [3]. The Stability result in series [4] was “Stable”.
With `CCCCCCCCCCCCOC(=O)C[N+](C)(C)CC[N+](C)(C)CC(=O)OCCCCCCCCCCCC.[Br-].[Br-]`, the MIC with Staphylococcus aureus [1] is 16 µM; against Enterococcus faecalis, 32 µM; with Escherichia coli it was 63 µM; against Pseudomonas aeruginosa, 125 µM; in the series on Staphylococcus aureus [2] it was 16 µM; in the series with Staphylococcus aureus [3], 32 µM. In series [4], the Stability entry is given as “Stable”.
Consider `CCCCCCCCCCNC(=O)C[N+](C)(C)CC[N+](C)(C)CC(=O)NCCCCCCCCCC.[Br-].[Br-]`, for which the MIC against Staphylococcus aureus [1] is 1 µM; in the series with Enterococcus faecalis, 1 µM; against Escherichia coli, 1 µM; with Pseudomonas aeruginosa, 2 µM; against Staphylococcus aureus [2] it was 0.5 µM; in the series on Staphylococcus aureus [3], 1 µM. Besides, in series [4], the Stability result is given as “Stable”.
In the case of `CCCCCCCOC(=O)C[N+](C)(C)CCCN(CCC[N+](C)(C)CC(=O)OCCCCCCC)CCC[N+](C)(C)CC(=O)OCCCCCCC.[Br-].[Br-].[Br-]`, the minimal inhibitory concentration (MIC) against Staphylococcus aureus [1] is 16 µM; against Enterococcus faecalis it was 32 µM; against Escherichia coli, 63 µM; against Pseudomonas aeruginosa, greater than 250 µM; with Staphylococcus aureus [2], 8 µM; against Staphylococcus aureus [3], 32 µM. Further, the Stability result in series [4] is recorded as “Stable”.
In the case of `CCCCCCOC(=O)C[N+](C)(C)CC[N+](C)(C)CC(=O)OCCCCCC.[Br-].[Br-]`, the minimal inhibitory concentration (MIC) in the series with Staphylococcus aureus [1] is greater than 250 µM; in the series on Enterococcus faecalis, greater than 250 µM; in the series on Escherichia coli, greater than 250 µM; in the series on Pseudomonas aeruginosa, greater than 250 µM; in the series with Staphylococcus aureus [2], 250 µM; in the series with Staphylococcus aureus [3], greater than 250 µM. Also, the Stability result in series [4] was “Stable”.
`CCCCCCCOC(=O)C[N+](C)(C)CC[N+](C)(C)CC(=O)OCCCCCCC.[Br-].[Br-]`: the minimum inhibitory concentration (MIC) was 250 µM in the series on Staphylococcus aureus [1]; greater than 250 µM with Enterococcus faecalis; greater than 250 µM in the series on Escherichia coli; greater than 250 µM in the series on Pseudomonas aeruginosa; 125 µM in the series with Staphylococcus aureus [2]; 250 µM in the series with Staphylococcus aureus [3]. For the same compound, the Stability result in series [4] is “Stable”.
`CCCCCCCCCCCCCCOC(=O)C[N+](C)(C)Cc1ccccc1.[Br-]`: the MIC in the series on Staphylococcus aureus [1] worked out at 1 µM; against Enterococcus faecalis, 4 µM; with Escherichia coli it was 8 µM; against Pseudomonas aeruginosa it was 250 µM; in the series with Staphylococcus aureus [2] it was 2 µM; in the series on Staphylococcus aureus [3] it was 1 µM. For the same compound, the Stability result in series [4] is given as “Stable”.
Take `CCCCCCCCCCCCOC(=O)C[N+](C)(C)CCC[N+](C)(CCC[N+](C)(C)CC(=O)OCCCCCCCCCCCC)CC(=O)OCCCCCCCCCCCC.[Br-].[Br-].[Br-]`: the MIC in the series on Staphylococcus aureus [1] came to 4 µM; against Enterococcus faecalis, 8 µM; with Escherichia coli, 8 µM; in the series with Pseudomonas aeruginosa, 16 µM; against Staphylococcus aureus [2] it was 8 µM; in the series on Staphylococcus aureus [3] it was 8 µM. The Stability entry in series [4] is listed as “Stable”.
For the compound `CCCCCCCCCOC(=O)C[N+](C)(C)CCN1CC[N+](C)(CC(=O)OCCCCCCCCC)CC1.[Br-].[Br-]`, the MIC is 4 µM against Staphylococcus aureus [1]; 8 µM in the series with Enterococcus faecalis; 16 µM against Escherichia coli; 125 µM in the series on Pseudomonas aeruginosa; 4 µM with Staphylococcus aureus [2]; 4 µM in the series with Staphylococcus aureus [3]. The Stability entry in series [4] is listed as “Stable”.
Consider `CCCCCCCCCOC(=O)C[N+](C)(C)Cc1ccccc1.[Br-]`, for which the minimum inhibitory concentration (MIC) was 32 µM against Staphylococcus aureus [1]; 125 µM in the series with Enterococcus faecalis; 125 µM in the series with Escherichia coli; greater than 250 µM with Pseudomonas aeruginosa; 32 µM against Staphylococcus aureus [2]; 63 µM against Staphylococcus aureus [3]. For the same compound, in series [4], the Stability result is given as “Stable”.
In the case of `CCCCCCCCCCOC(=O)C[N+](C)(C)CCC[N+](C)(CCC[N+](C)(C)CC(=O)OCCCCCCCCCC)CC(=O)OCCCCCCCCCC.[Br-].[Br-].[Br-]`, the minimal inhibitory concentration (MIC) against Staphylococcus aureus [1] is 4 µM; in the series on Enterococcus faecalis, 8 µM; in the series with Escherichia coli, 8 µM; in the series with Pseudomonas aeruginosa, 16 µM; with Staphylococcus aureus [2], 4 µM; against Staphylococcus aureus [3], 4 µM. For the same compound, in series [4], the Stability entry was “Stable”.
Regarding `CCCCCCCCCCCCCCOC(=O)C[N+](C)(C)CCN1CC[N+](C)(CC(=O)OCCCCCCCCCCCCCC)CC1.[Br-].[Br-]`, the MIC with Staphylococcus aureus [1] was greater than 250 µM; against Enterococcus faecalis, greater than 250 µM; against Escherichia coli, greater than 250 µM; against Pseudomonas aeruginosa, greater than 250 µM; in the series on Staphylococcus aureus [2] it was 250 µM; in the series on Staphylococcus aureus [3] it was greater than 250 µM. Further, the Stability result in series [4] is on record as “Stable”.
With `CCCCCCCOC(=O)C[N+](C)(C)Cc1ccccc1.[Br-]`, the MIC against Staphylococcus aureus [1], in the series with Enterococcus faecalis, against Escherichia coli, against Pseudomonas aeruginosa, against Staphylococcus aureus [2] and against Staphylococcus aureus [3] was greater than 250 µM throughout. The Stability entry in series [4] is “Stable”.
Regarding `CCCCCCCCCOC(=O)C[N+](C)(C)CC[N+](C)(C)CC(=O)OCCCCCCCCC.[Br-].[Br-]`, the MIC with Staphylococcus aureus [1] is 2 µM; against Enterococcus faecalis it was 16 µM; against Escherichia coli it was 16 µM; in the series on Pseudomonas aeruginosa, 32 µM; in the series with Staphylococcus aureus [2], 4 µM; in the series on Staphylococcus aureus [3], 8 µM. In series [4], the Stability entry was “Stable”.
Consider `CCCCCCOC(=O)C[N+](C)(C)CCN1CC[N+](C)(CC(=O)OCCCCCC)CC1.[Br-].[Br-]`, for which the MIC with Staphylococcus aureus [1], against Enterococcus faecalis, in the series with Escherichia coli, with Pseudomonas aeruginosa, against Staphylococcus aureus [2] and in the series on Staphylococcus aureus [3] was greater than 250 µM in each case. Moreover, the Stability entry in series [4] is “Stable”.
As to `CCCCCCCCCOC(=O)C[N+](C)(C)CCC[N+](C)(CCC[N+](C)(C)CC(=O)OCCCCCCCCC)CC(=O)OCCCCCCCCC.[Br-].[Br-].[Br-]`, the minimal inhibitory concentration (MIC) was 4 µM in the series with Staphylococcus aureus [1]; 16 µM against Enterococcus faecalis; 8 µM against Escherichia coli; 32 µM in the series on Pseudomonas aeruginosa; 8 µM in the series on Staphylococcus aureus [2]; 8 µM against Staphylococcus aureus [3]. For the same compound, the Stability entry in series [4] was “Stable”.
Take `CCCCCCCCCCCCOC(=O)C[N+](C)(C)CCN1CC[N+](C)(CC(=O)OCCCCCCCCCCCC)CC1.[Br-].[Br-]`: the MIC in the series on Staphylococcus aureus [1] was 8 µM; with Enterococcus faecalis, 32 µM; in the series with Escherichia coli, 16 µM; against Pseudomonas aeruginosa, 32 µM; in the series on Staphylococcus aureus [2] it was 8 µM; against Staphylococcus aureus [3], 8 µM. Further, the Stability result in series [4] is “Stable”.
With `CCCCCCCCCCOC(=O)C[N+](C)(C)CC[N+](C)(C)CC(=O)OCCCCCCCCCC.[Br-].[Br-]`, the minimal inhibitory concentration (MIC) came out at 4 µM against Staphylococcus aureus [1]; 16 µM with Enterococcus faecalis; 8 µM with Escherichia coli; 32 µM in the series with Pseudomonas aeruginosa; 8 µM against Staphylococcus aureus [2]; 8 µM in the series on Staphylococcus aureus [3]. Besides, in series [4], the Stability result is given as “Stable”.
For the compound `CCCCCCCCOC(=O)C[N+](C)(C)CC[N+](C)(C)CC(=O)OCCCCCCCC.[Br-].[Br-]`, the minimum inhibitory concentration (MIC) in the series on Staphylococcus aureus [1] is 32 µM; in the series with Enterococcus faecalis, 63 µM; with Escherichia coli, 63 µM; against Pseudomonas aeruginosa, 125 µM; in the series on Staphylococcus aureus [2] it was 16 µM; in the series on Staphylococcus aureus [3], 32 µM. In series [4], the Stability entry is on record as “Stable”.
As to `CCCCCCCCCCCCCCOC(=O)C[N+](C)(C)CC[N+](C)(C)CC(=O)OCCCCCCCCCCCCCC.[Br-].[Br-]`, the MIC with Staphylococcus aureus [1] was 16 µM; in the series with Enterococcus faecalis, 32 µM; in the series with Escherichia coli, 250 µM; against Pseudomonas aeruginosa, greater than 250 µM; in the series on Staphylococcus aureus [2], 16 µM; with Staphylococcus aureus [3] it was 32 µM. Further, the Stability entry in series [4] is listed as “Stable”.
Turning to `CCCCCCCCCCOC(=O)C[N+](C)(C)Cc1ccccc1.[Br-]`, the minimal inhibitory concentration (MIC) was 32 µM with Staphylococcus aureus [1]; 32 µM against Enterococcus faecalis; 63 µM with Escherichia coli; greater than 250 µM in the series on Pseudomonas aeruginosa; 16 µM in the series with Staphylococcus aureus [2]; 32 µM in the series on Staphylococcus aureus [3]. The Stability entry in series [4] is listed as “Stable”.

As usually defined, the MIC is the smallest concentration in the dilution series that meets the test's criterion for growth inhibition. A high value points to weaker potency.
